Molecules are shown by their SMILES. Values joined by “and” are separate entries in the source; they are usually repeats but may differ in a detail not shown here. Equal entries are not always repeated.

Series [1] can be described thus: Metabolite ID study, monkey hepatocytes. Type of series: in vitro ADME. The settings on record: 10 uM compound 9, T=60 min. How it is done: Animal Studies: Compound 9 was tested using six species hepatocytes in a metabolite ID study (T=60 min).
Cryopreserved hepatocytes from a selected species were thawed and incubated in duplicate with 10 uM compound 9 in Krebs-Henseleit buffer. […] Viability of hepatocytes was >70% after thawing.
(Eppendorf 5804R). […] The disappearance of the parent compound was determined, and the formation of metabolites was evaluated. Metabolites present at >1% of total compound related material (based on peak area) were identified by interpretation of the LC-MS/MS data.
MS settings were optimized for the flow rate. Full scan spectra were acquired in combination with data dependent MS2.
The spectra obtained from all samples were screened for the presence of m/z values that are absent in the blank incubations (incubations with hepatocytes without compound and with vehicle control, and incubations of compound in buffer without hepatocytes). T=60 min incubations were used as an initial screening. All possible metabolites observed were semi-quantified by MS response (peak area). MS2 spectra were interpreted to determine possible location of the metabolism reaction. The presence of metabolites identified was compared across the selected species.

The test system of series [2] is A549 (KRAS G12S) pERK: total ERK. Briefly: Phospho-ERK screen in A549 (KRAS G12S). Type of series: cell-based. As to conditions: 10 μM for 2 hours. How it is done:
Materials and Methods: A549 or A375 cells were seeded in 6-well plates at an appropriate seeding density on day 0. On day 2 or 3, after checking the health and confluency of cells, the media was aspirated and replaced with 1 mL media containing a predetermined concentration of compound and incubated for 2 hours. After 2 hours, the media was aspirated, and the cells washed 2 times with cold PBS. Cells were lysed on ice, with 50 uL 1×CST lysis buffer+1 mM PMSF for 5 minutes. After 5 minutes, cells were removed using a scraper and transferred to cold 1.5 mL tubes, and centrifuged for 10 min, 4° C., 14,000×g. Supernatant was gently removed and snap frozen in liquid nitrogen. Protein concentration of the lysate was determined using Bradford Reagent (analyzed using SpectraMax M2E) and diluted to 1 mg/mL or pERK or 1.5 mg/mL for pMEK analysis. Cell lysates were then analyzed for phosphor-ERK/total-ERK levels on a Jess system (ProteinSimple; Cat #JS3346) using the following antibodies: tERK1/2 (CST 4696; 1:50) and pERK1/2 (CST 4377; 1:50). For pMEK/tMEK, the following antibodies were used: tMEK1/2 (CST 4694; 1:15) and pMEK1/2 (CST 9154; 1:400). All dilutions were in Milk-free antibody diluent.
The results of a phospho-ERK Screen in A549 (KRAS G12S) study is described in Table 7, 7A, 7B, and 8 below.

Series [3] relates to A549 CRAF BP (MEK phosphorylation). Put plainly: A549-CRAF BP 100 nM, 2 h (pMEK). The settings on record: Homo sapiens, A549, 2 h, phospho:total ratio normalized to DMSO control. In kind it is cell-based. In a few lines:
(§1)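 Cells treated in duplicate for 2 h with compound, lysed and protein-normalised (1 mg/mL pERK, 1.5 mg/mL pMEK). Quantitative capillary Western; phospho/total protein ratio normalised to DMSO.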

Series [4] has as its system A549 pERK. Briefly: A549-pERK, 2 h (quantitative Western, Jess). In kind it is cell-based. As to conditions: Homo sapiens, A549, 2 h, phospho:total ratio normalized to DMSO control. In a few lines: as §1
Series [5] concerns the target hERG Channel (Homo sapiens, UniProt Q12809). Put plainly: in vitro.
A short description of series [6]: Mouse liver microsome stability (t1/2, Clint). In kind it is in vitro ADME. The settings on record: liver microsomes, pH 7.4, 0.5 mg/ml microsomal protein. The procedure:
(Eppendorf 5804R). […] The disappearance of the parent compound was determined.
A general note: Liver microsomes are a subcellular fraction often used to study metabolism.

hERG Channel, sequence (Q12809 whole entry): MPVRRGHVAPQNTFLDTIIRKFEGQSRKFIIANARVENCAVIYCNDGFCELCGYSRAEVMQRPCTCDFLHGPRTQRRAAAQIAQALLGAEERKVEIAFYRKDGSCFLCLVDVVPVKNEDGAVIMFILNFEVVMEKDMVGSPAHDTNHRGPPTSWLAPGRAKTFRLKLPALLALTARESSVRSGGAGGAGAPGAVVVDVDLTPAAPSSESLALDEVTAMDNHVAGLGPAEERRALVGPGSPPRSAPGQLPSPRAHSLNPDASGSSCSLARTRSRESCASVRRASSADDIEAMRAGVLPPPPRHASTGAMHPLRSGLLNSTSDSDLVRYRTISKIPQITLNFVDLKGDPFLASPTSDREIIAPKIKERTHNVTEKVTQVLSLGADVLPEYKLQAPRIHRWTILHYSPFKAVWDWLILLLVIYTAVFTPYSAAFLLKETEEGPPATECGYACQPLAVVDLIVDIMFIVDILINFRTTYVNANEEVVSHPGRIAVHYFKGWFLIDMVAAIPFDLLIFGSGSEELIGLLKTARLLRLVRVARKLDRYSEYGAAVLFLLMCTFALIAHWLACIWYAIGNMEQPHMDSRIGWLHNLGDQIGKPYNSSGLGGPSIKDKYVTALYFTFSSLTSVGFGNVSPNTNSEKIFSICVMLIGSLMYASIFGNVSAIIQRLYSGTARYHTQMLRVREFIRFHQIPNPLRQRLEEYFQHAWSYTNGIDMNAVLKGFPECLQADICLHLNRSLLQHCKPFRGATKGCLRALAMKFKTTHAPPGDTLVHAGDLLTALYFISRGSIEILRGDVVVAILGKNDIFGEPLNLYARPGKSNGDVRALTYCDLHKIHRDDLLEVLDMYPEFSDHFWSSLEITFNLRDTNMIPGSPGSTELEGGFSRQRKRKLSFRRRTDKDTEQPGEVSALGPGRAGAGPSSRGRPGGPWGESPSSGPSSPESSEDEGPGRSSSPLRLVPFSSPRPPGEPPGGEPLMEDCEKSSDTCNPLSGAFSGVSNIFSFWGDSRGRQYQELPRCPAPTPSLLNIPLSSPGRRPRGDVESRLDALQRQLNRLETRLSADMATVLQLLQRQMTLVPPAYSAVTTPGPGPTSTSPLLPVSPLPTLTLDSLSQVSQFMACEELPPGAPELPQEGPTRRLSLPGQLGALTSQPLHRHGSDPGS

On to `CNS(=O)(=O)Nc1cccc(Cc2c(CN(C)C)c3ccc(OC(=O)N(C)C)cc3oc2=O)c1F` [Compound 9], for which, in series [1], the “% of total compound related material based on peak area, Monkey” value came out at 95%. In addition, the “pERK: total ERK (% relative to vehicle)” value in series [2] is 0.60% and 1.81%. Also, in series [3], the activity at 0.1 µM amounted to 44.9%. Further, in series [4] (10 nM), the activity at 0.01 µM was determined as 63%. Further, the activity at 10 µM in series [4] (10 uM) turned out to be 1.21%. In series [5], this compound registered a 50% inhibitory concentration (IC50) of 26.2 µM. In series [6], the half-life at 1 uM is 44 min and the intrinsic clearance (microsomal CLint) at 1 uM came to 32 µL/min/mg.

By IC50 is commonly meant the concentration that gives 50% inhibition. As usually defined, the half-life is the time needed for the level to fall by half in the phase considered. Usually microsomal CLint stands for a measure of how fast metabolising enzymes remove a compound, apart from limits set by blood flow.

For the origin of these results see patent US20250270180A1, “MEK INHIBITORS AND THERAPEUTIC USES THEREOF” (Immuneering Corporation, priority 2020, published 2025).
